{"source": "ChEMBL document CHEMBL3526034", "about": "(Drug Metab Dispos, 2013)", "key": {"[1]": {"biological_target": "UDP-glucuronosyltransferase 2B7 (Homo sapiens, UniProt P16662)", "sequence (P16662 whole entry)": "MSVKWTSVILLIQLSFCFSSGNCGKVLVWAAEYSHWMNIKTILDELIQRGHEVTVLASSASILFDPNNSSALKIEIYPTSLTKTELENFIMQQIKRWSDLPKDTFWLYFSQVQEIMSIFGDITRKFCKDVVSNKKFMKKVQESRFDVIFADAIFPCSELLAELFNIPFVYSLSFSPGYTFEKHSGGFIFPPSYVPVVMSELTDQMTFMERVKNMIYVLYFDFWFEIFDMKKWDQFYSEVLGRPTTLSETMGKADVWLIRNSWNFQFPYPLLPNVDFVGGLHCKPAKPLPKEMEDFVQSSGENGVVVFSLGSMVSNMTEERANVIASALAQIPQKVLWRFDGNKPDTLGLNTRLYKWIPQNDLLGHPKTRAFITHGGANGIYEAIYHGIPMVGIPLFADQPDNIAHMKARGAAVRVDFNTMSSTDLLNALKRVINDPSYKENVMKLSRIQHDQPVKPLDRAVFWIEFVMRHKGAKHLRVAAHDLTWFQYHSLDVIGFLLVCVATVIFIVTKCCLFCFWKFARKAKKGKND", "assay": "Inhibition of human recombinant UGT2B7 expressed in supersomes assessed as 7-HFC glucuronidation up to 100 uM by fluoresence analysis", "format": "ADME", "details": "recombinant enzyme; call rule not given here"}, "[2]": {"biological_target": "Solute carrier organic anion transporter family member 1B1 (Homo sapiens, UniProt Q9Y6L6)", "assay": "Inhibition of human OATP1B1 expressed in CHO cells using [3H]estradiol 17beta-D-glucuronide as substrate by liquid scintillation counting analysis", "format": "ADME, cell-based"}, "[3]": {"biological_target": "T1, MDR1 (P-gp, ABCB1) (Homo sapiens, UniProt P08183)", "T1 sequence (P08183 whole entry)": "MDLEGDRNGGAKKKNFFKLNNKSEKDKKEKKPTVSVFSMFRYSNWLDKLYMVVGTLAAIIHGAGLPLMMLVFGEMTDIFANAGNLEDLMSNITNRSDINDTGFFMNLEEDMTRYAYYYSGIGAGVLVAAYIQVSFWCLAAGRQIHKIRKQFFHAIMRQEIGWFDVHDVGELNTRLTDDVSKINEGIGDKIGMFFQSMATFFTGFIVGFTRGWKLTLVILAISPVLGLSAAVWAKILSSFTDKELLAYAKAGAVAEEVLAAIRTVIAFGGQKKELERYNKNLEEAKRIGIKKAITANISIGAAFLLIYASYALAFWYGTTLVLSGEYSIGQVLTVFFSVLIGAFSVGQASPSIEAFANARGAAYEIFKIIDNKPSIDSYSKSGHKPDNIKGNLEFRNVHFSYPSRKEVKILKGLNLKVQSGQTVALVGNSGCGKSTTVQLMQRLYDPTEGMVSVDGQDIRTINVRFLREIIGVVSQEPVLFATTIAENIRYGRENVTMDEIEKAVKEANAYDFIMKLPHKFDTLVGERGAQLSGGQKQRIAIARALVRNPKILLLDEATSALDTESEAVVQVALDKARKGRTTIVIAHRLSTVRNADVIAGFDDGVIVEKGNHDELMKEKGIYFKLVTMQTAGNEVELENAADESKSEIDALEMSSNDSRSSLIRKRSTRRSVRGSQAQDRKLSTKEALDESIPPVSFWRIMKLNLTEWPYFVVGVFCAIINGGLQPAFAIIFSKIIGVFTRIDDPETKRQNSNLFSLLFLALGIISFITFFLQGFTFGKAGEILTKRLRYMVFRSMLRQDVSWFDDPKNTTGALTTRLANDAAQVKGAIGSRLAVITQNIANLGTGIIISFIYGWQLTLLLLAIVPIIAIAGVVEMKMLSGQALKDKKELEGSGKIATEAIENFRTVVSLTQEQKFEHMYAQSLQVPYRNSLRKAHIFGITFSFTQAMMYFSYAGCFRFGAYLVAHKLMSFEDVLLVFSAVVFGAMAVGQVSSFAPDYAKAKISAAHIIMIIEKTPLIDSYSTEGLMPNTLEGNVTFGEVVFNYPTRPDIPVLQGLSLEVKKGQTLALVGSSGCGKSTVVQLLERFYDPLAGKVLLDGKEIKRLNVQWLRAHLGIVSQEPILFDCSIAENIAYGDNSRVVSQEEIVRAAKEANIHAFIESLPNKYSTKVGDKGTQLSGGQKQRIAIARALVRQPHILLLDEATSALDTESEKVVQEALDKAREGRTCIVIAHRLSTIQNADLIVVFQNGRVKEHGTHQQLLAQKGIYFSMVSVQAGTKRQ", "assay": "Activity at human MDR1 expressed in MDCK2 cells assessed as basolateral to apical mass balance at 3 uM by liquid scintillation counting analysis in presence of 3 uM P-gp and BCRP inhibitor GF120918", "format": "ADME, cell-based, MDCK-II", "details": "with GF120918 (P-gp and BCRP inhibitor), read-out: Activity"}, "[4]": {"biological_target": "T2, Cytochrome P450 2C8 (Homo sapiens, UniProt P10632)", "T2 sequence (P10632 whole entry)": "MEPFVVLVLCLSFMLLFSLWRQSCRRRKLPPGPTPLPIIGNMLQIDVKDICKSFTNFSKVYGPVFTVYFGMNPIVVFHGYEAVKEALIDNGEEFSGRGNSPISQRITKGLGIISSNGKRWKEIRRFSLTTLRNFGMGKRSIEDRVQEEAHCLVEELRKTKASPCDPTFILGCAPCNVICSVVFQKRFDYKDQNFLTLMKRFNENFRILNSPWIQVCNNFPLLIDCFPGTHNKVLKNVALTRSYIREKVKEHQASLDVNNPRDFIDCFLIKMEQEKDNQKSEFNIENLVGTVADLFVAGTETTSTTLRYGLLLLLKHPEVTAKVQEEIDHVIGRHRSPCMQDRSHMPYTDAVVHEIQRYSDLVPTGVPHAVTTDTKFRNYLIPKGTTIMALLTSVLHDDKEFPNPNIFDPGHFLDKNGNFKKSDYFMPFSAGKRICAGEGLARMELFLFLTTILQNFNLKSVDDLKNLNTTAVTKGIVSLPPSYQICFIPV", "assay": "Drug metabolism in supersomes expressing human recombinant CYP2C8 assessed as NADPH-fortified enzyme-mediated metabolite formation at 5 uM after 120 mins by radio HPLC analysis", "format": "ADME", "details": "2 h"}, "[5]": {"biological_target": "Cytochrome P450 2A6 (Homo sapiens, UniProt P11509)", "assay": "Metabolism-dependent inhibition of CYP2A6 in human liver microsomes using coumarin as substrate preincubated for 20 mins with NADPH prior to initiation of reaction with probe substrate by HPLC analysis", "format": "ADME"}, "[6]": {"biological_target": "T1, MDR1 (P-gp, ABCB1)", "assay": "Activity at human MDR1 expressed in MDCK2 cells assessed as basolateral to apical mass balance at 3 uM by liquid scintillation counting analysis", "format": "ADME, cell-based, MDCK-II", "details": "MDCK-MDR1, read-out: Activity"}, "[7]": {"biological_target": "CYP2C19 (Homo sapiens, UniProt P33261)", "sequence (P33261 whole entry)": "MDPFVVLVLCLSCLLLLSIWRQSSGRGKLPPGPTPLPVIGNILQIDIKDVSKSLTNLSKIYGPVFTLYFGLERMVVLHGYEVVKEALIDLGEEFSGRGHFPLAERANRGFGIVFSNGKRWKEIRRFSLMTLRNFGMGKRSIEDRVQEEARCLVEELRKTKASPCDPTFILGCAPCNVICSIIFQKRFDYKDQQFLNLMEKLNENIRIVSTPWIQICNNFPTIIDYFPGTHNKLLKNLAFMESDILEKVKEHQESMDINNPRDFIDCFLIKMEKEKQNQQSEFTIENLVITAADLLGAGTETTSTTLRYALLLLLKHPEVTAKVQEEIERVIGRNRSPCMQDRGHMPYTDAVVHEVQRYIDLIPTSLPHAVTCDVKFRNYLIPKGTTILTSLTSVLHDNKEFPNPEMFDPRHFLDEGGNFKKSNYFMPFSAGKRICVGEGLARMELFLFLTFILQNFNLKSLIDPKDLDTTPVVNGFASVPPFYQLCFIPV", "assay": "Inhibition of CYP2C19 in human liver microsomes using S-mephenytoin as substrate at 100 uM preincubated for 20 mins with substrate prior to initiation of reaction with NADPH by HPLC analysis", "format": "ADME", "details": "probe S-mephenytoin"}, "[8]": {"biological_target": "Cytochrome P450 3A4 (Homo sapiens, UniProt P08684)", "sequence (P08684 whole entry)": "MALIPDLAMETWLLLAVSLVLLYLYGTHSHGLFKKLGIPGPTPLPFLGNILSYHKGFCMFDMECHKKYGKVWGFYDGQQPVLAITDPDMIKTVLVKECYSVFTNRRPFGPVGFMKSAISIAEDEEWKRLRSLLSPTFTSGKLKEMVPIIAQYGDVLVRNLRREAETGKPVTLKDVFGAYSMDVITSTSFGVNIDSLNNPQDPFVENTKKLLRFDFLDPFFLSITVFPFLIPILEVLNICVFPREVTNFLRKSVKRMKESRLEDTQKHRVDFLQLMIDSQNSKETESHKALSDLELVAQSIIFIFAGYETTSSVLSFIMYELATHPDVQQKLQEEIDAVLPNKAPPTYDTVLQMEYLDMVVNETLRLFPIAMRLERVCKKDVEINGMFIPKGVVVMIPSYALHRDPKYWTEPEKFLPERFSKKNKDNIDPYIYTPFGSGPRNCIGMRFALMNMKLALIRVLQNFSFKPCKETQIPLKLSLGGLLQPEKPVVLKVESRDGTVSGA", "assay": "Drug metabolism in supersomes expressing human recombinant CYP3A4 assessed as intrinsic clearance for NADPH-fortified enzyme-mediated metabolite M3 ((4R,12aS)-N-((3,5-difluorophenyl)(hydroxy)methyl)-7-hydroxy-4-methyl-6,8-dioxo-3,4,6,8,12,12a-hexahydro-2H-[1,3]oxazino[3,2-d]pyrido[1,2-a]pyrazine-9-carboxamide) formation at 5 uM after 120 mins by radio-HPLC analysis", "format": "ADME"}, "[9]": {"biological_target": "Cytochrome P450 2C19 (Homo sapiens, UniProt P33261)", "sequence (P33261 whole entry)": "as the sequence (P33261 whole entry) above", "assay": "Inhibition of CYP2C19 in human liver microsomes using S-mephenytoin as substrate preincubated for 20 mins with substrate prior to initiation of reaction with NADPH by HPLC analysis", "format": "ADME"}, "[10]": {"biological_target": "UDP-glucuronosyltransferase 1A6 (Homo sapiens, UniProt P19224)", "sequence (P19224 whole entry)": "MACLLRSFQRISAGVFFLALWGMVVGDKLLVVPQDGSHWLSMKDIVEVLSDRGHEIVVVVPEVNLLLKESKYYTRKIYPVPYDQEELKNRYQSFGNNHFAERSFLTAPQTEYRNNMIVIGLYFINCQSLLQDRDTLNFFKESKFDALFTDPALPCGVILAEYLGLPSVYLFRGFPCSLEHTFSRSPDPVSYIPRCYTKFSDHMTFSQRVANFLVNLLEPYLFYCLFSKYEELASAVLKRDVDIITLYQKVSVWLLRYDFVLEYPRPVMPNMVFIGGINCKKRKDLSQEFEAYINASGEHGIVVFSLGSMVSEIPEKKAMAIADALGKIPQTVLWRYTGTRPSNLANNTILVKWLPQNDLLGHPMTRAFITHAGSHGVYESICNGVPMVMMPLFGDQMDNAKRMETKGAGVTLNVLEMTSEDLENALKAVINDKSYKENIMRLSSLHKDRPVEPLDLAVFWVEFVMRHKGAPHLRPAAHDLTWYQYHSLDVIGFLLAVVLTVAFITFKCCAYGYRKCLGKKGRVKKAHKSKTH", "assay": "(§1) Drug metabolism assessed as UDPGA-fortified human recombinant UGT1A6-mediated DTG glucuronide metabolite ((2S,3S,4S,5R,6S)-6-((4R,12aS)-9-(2,4-difluorobenzylcarbamoyl)-4-methyl-6,8-dioxo-3,4,6,8,12,12a-hexahydro-2H-[1,3]oxazino[3,2-d]pyrido[1,2-a]pyrazin-7-yloxy)-3,4,5-trihydroxytetrahydro-2H-pyran-2-carboxylic acid) formation at 16 uM after 120 mins by radio-HPLC analysis", "format": "ADME", "details": "recombinant enzyme"}, "[11]": {"biological_target": "T3, Cytochrome P450 2B6 (Homo sapiens, UniProt P20813)", "T3 sequence (P20813 whole entry)": "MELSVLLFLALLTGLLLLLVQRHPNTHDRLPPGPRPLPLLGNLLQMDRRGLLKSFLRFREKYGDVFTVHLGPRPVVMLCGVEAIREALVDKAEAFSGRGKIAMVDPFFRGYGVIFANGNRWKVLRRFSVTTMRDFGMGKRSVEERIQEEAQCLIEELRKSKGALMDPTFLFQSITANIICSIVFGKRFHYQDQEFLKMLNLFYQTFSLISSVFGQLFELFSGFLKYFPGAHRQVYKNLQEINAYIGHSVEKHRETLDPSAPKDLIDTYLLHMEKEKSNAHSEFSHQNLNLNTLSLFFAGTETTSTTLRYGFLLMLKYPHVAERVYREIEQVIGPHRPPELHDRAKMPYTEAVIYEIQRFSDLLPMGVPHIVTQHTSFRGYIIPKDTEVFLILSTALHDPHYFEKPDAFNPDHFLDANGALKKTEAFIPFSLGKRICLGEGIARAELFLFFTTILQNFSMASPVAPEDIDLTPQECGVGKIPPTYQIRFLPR", "assay": "Drug metabolism in supersomes expressing human recombinant CYP2B6 assessed as NADPH-fortified enzyme-mediated metabolite formation at 5 uM after 120 mins by radio HPLC analysis", "format": "ADME", "details": "2 h"}, "[12]": {"tested_on": "Hepatocyte", "assay": "Induction of CYP3A4 mRNA expression in human hepatocytes at 1 to 40 uM after 48 hrs by real time PCR analysis", "format": "ADME, cell-based"}, "[13]": {"biological_target": "UDP-glucuronosyltransferase 2B4 (Homo sapiens, UniProt P06133)", "sequence (P06133 whole entry)": "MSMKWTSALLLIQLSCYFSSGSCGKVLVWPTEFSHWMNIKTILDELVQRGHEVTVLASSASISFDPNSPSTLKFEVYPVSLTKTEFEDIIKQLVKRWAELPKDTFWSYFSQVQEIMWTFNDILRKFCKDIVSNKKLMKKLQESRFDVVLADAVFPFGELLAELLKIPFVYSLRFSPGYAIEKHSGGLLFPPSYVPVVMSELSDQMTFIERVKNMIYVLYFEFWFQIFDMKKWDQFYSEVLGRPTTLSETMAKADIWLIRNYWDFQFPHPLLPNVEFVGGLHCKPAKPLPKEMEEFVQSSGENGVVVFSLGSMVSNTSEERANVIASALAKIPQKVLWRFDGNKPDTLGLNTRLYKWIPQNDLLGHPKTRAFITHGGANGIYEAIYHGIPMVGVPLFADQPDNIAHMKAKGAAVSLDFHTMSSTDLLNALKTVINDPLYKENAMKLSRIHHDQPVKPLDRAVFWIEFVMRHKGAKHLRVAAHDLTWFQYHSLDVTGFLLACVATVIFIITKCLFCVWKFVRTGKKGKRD", "assay": "as §1, with “UGT2B4-mediated” for “UGT1A6-mediated”", "format": "ADME", "details": "recombinant enzyme"}, "[14]": {"biological_target": "T3, Cytochrome P450 2B6", "assay": "Metabolism-dependent inhibition of CYP2B6 in human liver microsomes using bupropion as substrate preincubated for 20 mins with NADPH prior to initiation of reaction with probe substrate by HPLC analysis", "format": "ADME"}, "[15]": {"biological_target": "Cytochrome P450 2C9 (Homo sapiens, UniProt P11712)", "sequence (P11712 whole entry)": "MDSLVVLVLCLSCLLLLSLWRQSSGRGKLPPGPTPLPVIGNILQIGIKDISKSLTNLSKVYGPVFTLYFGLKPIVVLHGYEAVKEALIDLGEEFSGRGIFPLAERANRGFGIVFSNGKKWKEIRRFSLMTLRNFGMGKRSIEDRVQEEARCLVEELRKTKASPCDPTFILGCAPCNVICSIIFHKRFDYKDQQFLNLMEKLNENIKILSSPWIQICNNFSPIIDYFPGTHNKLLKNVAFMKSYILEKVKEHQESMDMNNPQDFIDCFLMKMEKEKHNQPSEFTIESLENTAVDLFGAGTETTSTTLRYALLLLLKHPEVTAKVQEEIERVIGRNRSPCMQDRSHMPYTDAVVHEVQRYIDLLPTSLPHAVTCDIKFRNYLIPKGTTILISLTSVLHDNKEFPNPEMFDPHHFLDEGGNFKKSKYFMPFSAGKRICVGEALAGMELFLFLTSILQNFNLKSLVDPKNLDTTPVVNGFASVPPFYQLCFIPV", "assay": "Drug metabolism in supersomes expressing human recombinant CYP2C9 assessed as NADPH-fortified enzyme-mediated metabolite formation at 5 uM after 120 mins by radio HPLC analysis", "format": "ADME", "details": "2 h"}}, "data": [{"smiles": "C[C@@H]1CCO[C@H]2Cn3cc(C(=O)NCc4ccc(F)cc4F)c(=O)c(O)c3C(=O)N12", "note": "[DOLUTEGRAVIR]", "values": [{"measurement": "inhibition (INH)", "setting": "[1]", "value": "Not Active"}, {"measurement": "IC50", "setting": "[2]", "value": "> 100", "unit": "µM"}, {"measurement": "recovery at 3 µM", "setting": "[3]", "value": 75, "unit": "%"}, {"measurement": "Drug metabolism", "setting": "[4]", "value": "metabolite_not_detected"}, {"measurement": "IC50", "setting": "[5]", "value": "> 100", "unit": "µM"}, {"measurement": "recovery at 3 µM", "setting": "[6]", "value": 84, "unit": "%"}, {"measurement": "inhibition at 100 µM", "setting": "[7]", "value": 20, "unit": "%"}, {"measurement": "CL", "setting": "[8]", "value": 3, "unit": "µL/min/mg"}, {"measurement": "IC50", "setting": "[9]", "value": "> 100", "unit": "µM"}, {"measurement": "Drug metabolism", "setting": "[10]", "value": "metabolite_not_detected"}, {"measurement": "Drug metabolism", "setting": "[11]", "value": "metabolite_not_detected"}, {"measurement": "Activity", "setting": "[12]", "value": "Toxic"}, {"measurement": "Drug metabolism", "setting": "[13]", "value": "metabolite_not_detected"}, {"measurement": "IC50", "setting": "[14]", "value": "> 100", "unit": "µM"}, {"measurement": "Drug metabolism", "setting": "[15]", "value": "metabolite_not_detected"}]}]}
